Patent US20160095823A1, “METHODS OF USING PROPOFOL DERIVATIVES FOR ANALGESIA” (priority 2005, published 2016)
Where “and” joins values, the source holds several entries; their conditions need not be identical. Equal entries are not always repeated.

Columns and labels:
glycine receptors = conditions: reported; cited from earlier work
Xenopus laevis embryos [1] = conditions: cited from earlier work
Xenopus laevis embryos [2] = assay: Fictive swimming in immobilized stage 37/8 Xenopus embryos (ventral root recording); format: in vivo
Text: The rhythmic swimming behaviour of Xenopus laevis frog embryos (FIG. 22A) is recognised as a powerful model system for exploring spinal neural networks controlling locomotion. The intensity, frequency and duration of swimming episodes are regulated by two inhibitory pathways: a descending brainstem GABA pathway that turns off swimming and a spinal glycinergic pathway that controls the cycle periods attained during swimming.
In the present study Xenopus embryos were used to test the action of 4-chloropropofol (a compound according to the first aspect of the invention) upon fictive swimming in immobilized embryos.
Stage 37/8 embryos (FIG. 22Ai) were immobilized in α-bungarotoxin, secured on a Sylgard block mounted in a recording chamber and recirculated with frog ringer. The flank skin on the left and right sides of the trunk was removed to expose the inter-myotomal clefts wherein lie the ventral roots and then three glass suction electrodes were positioned at rostral and caudal levels on the left side and rostrally on the right side (FIG. 22Aiii) to record “fictive” swimming (FIG. 22B). Swimming activity was evoked by a brief 1 msec current pulse applied to the tail skin via a fourth glass suction electrode. Drugs were applied directly to the bath.

[3] = molecular target: T1, α-subunits of glycine receptors from the rat coexpressed with human β subunits (Rattus norvegicus, UniProt P07727); assay: Example 2: direct activation in the absence of glycine, whole-cell mode, HEK293 cells; format: cell-based
T1 construct: expressed in transfected cells; host or cells: HEK293
Text: (§1) Small cells were studied in the whole-cell mode using an ultra-fast application device.
The solid line is a Hill fit to the data with the indicated parameters. Note that the direct activating effect is observed at 1000-fold higher concentrations than the co-activating effect.

native glycine receptors = assay: Rat in vitro spinal cord preparation (sIPSCs, tonic conductance); conditions: 100 nM-1 μM, preliminary experiments
[4] = molecular target: T1, α-subunits of glycine receptors from the rat coexpressed with human β subunits; assay: Example 2: co-activation of the current response to 10 μM glycine, whole-cell mode, HEK293 cells; format: cell-based
Description: as §1
The results presented in FIG. 10 were corroborated by repeating the tests carried out to provide the data shown in FIG. 10 to provide the data shown in FIG. 11. […] Note from FIGS. 10 and 11 that the co-activating effect is observed in the concentration range between […]. The co-activating effect is overridden by inhibitory effects at higher concentrations (≧1000 μM). […] Small cells were studied in the whole-cell mode using an ultra-fast application device.

[5] = molecular target: T2, recombinant glycine alpha1 receptors (Homo sapiens, UniProt P23415); assay: Glycine (EC10)-evoked current in Xenopus oocytes; format: cell-based; conditions: 100 nM, preliminary experiments
T2 construct: expressed in transfected cells; host or cells: Xenopus oocytes
T2 sequence (P23415 29-457): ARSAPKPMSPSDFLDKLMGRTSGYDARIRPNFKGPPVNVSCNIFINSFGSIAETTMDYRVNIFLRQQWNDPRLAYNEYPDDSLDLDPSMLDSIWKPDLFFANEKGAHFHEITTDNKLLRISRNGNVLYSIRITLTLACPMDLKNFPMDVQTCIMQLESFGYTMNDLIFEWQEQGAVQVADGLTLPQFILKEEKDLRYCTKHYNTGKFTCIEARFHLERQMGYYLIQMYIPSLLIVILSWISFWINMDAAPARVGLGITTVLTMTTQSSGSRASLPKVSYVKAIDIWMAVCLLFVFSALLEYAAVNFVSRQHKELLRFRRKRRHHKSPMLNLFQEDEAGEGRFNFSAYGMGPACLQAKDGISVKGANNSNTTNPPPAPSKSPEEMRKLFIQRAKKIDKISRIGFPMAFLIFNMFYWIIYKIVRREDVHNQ

[6] = 10 μM in the presence of 1 μM strychnine
[7] = 10 μM in the presence of 1 μM strychnine, pooled n=3
[8] = 10 μM in the presence of 40 μM bicuculline methiodide
[9] = wash after 10 μM in 1 μM strychnine
[10] = wash after 10 μM in 40 μM bicuculline methiodide

T1 sequence (P07727 29-457): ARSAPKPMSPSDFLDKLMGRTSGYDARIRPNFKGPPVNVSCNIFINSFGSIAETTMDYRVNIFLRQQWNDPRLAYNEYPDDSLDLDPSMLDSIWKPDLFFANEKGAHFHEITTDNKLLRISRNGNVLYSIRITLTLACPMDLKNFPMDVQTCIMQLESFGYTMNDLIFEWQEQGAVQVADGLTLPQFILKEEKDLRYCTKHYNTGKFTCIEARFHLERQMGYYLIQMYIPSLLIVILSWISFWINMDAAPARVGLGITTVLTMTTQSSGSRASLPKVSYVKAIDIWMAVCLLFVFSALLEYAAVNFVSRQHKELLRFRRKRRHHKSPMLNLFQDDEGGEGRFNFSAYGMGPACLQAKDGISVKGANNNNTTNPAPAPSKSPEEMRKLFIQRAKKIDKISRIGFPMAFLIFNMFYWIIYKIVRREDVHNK
T1 sequence (P48167 23-497 partner): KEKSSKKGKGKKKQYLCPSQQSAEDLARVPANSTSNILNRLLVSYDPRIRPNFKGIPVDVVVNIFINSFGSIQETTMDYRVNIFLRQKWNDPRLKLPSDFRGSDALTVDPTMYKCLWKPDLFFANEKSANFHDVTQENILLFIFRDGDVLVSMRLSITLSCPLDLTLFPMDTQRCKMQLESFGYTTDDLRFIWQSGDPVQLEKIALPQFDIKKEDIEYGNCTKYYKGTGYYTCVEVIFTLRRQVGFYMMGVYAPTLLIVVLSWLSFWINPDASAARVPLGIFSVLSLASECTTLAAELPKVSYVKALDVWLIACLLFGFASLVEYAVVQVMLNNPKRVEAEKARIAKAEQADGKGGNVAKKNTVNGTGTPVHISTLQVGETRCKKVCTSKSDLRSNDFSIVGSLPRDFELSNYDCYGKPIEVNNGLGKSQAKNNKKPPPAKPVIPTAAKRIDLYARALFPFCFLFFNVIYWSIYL

SMILES: CC(C)c1cccc(C(C)C)c1O [propofol, 2,6-di-isopropylphenol]
- activation of glycine receptors, fold higher concentrations than EC50 at GABAA receptors (glycine receptors): 10 fold
- concentration affecting swimming via potentiation of the glycine receptor (Xenopus laevis embryos [1]; higher concentrations): 40 µM
- concentration inhibiting swimming via actions at the GABAA receptor (Xenopus laevis embryos [1]; low concentration): 10 µM

SMILES: CC(C)c1cc(Cl)cc(C(C)C)c1O [4-chloropropofol, 4-chloro-2,6 di-isopropylphenol]
- change in episode duration (Xenopus laevis embryos [2]; 10 μM alone): no significant change
- increase in left-right delay (Xenopus laevis embryos [2]; 10 μM alone): 19%
- increase in rostro-caudal delay (Xenopus laevis embryos [2]; 10 μM alone): 8%
- increase in cycle periods (Xenopus laevis embryos [2]; 10 μM alone, pooled from 5 experiments): approximately 20%
- decrease in cycle periods at the end of the episode (Xenopus laevis embryos [2]; [6]): 3.4 ms
- decrease in episode duration (Xenopus laevis embryos [2]; [6]): 17 s
- increase in cycle periods at the start of the episode (Xenopus laevis embryos [2]; [6]): 0.5 ms
- decrease in cycle periods (not significant) (Xenopus laevis embryos [2]; [7]): less than 2%
- effect on episode duration (Xenopus laevis embryos [2]; [7]): little or no effect
- effect on left-right delay (Xenopus laevis embryos [2]; [7]): little or no effect
- increase in cycle periods at the end of the episode (Xenopus laevis embryos [2]; [8]): 20.3 ms
- increase in cycle periods at the start of the episode (Xenopus laevis embryos [2]; [8]): 8.2 ms
- increase in episode duration (Xenopus laevis embryos [2]; [8]): 2 s
- average cycle period (Xenopus laevis embryos [2]; 20 minutes after addition of 10 μM 4-chloropropofol in bicuculline): 61.3 ms
- reversal of effect on cycle period by saline wash (Xenopus laevis embryos [2]; after 10 μM alone): 25-30%
- reversal of effect on left-right delay by saline wash (Xenopus laevis embryos [2]; after 10 μM alone): 22%
- reversal of effect on rostro-caudal delay by saline wash (Xenopus laevis embryos [2]; after 10 μM alone): 12%
- average cycle period (Xenopus laevis embryos [2]; after bicuculline methiodide wash): 54.5 ms
- effect at the GABAA receptor (Xenopus laevis embryos [2]; at 1004 (so in the source)): negligible effect
- influence on glycine receptors (Xenopus laevis embryos [2]; at the same concentration): powerful influence
- change in rostro-caudal delay (Xenopus laevis embryos [2]; in the presence of 1 μM strychnine): small increase
- change in rostro-caudal delay (Xenopus laevis embryos [2]; in the presence of 40 μM bicuculline methiodide): clear decrease
- decrease in cycle periods at the end of the episode by strychnine wash (Xenopus laevis embryos [2]; [9]): 5.4 ms
- decrease in cycle periods at the start of the episode by strychnine wash (Xenopus laevis embryos [2]; [9]): 3 ms
- increase in episode duration by strychnine wash (Xenopus laevis embryos [2]; [9]): 2 s
- further decrease in cycle periods by the strychnine wash (Xenopus laevis embryos [2]; wash after 10 μM in 1 μM strychnine, pooled n=3): 3% and 1%
- further increase of cycle periods at the end of the episode after bicuculline wash (Xenopus laevis embryos [2]; [10]): 6.5 ms
- reduction of cycle period at the start of the episode by bicuculline wash (Xenopus laevis embryos [2]; [10]): 2 ms
- reduction of episode duration by bicuculline wash (Xenopus laevis embryos [2]; [10]): 2 s
- EC50 values in the absence of the natural transmitter glycine ([3]; Example 2): single-digit micromolar range
- direct activating effect, fold higher concentrations than the co-activating effect ([3]; absence of glycine versus 10 μM glycine): 1000 fold
- effect on sIPSCs (mediated by synaptic glycine receptors) (native glycine receptors): prolongation
- effect on tonic conductance (mediated by extrasynaptic glycine receptors) (native glycine receptors): increase
- EC50 values in the presence of glycine (co-activation) ([4]; Example 2): single-digit nanomolar range
- concentrations above which peak current amplitude declines (probable open channel block) ([4]; co-applied with 10 μM glycine): above 10 μM
- concentrations at which the co-activating effect is overridden by inhibitory effects ([4]; co-applied with 10 μM glycine): ≥ 1000 µM
- enhancement of glycine receptor function / EC50 for co-activation, fold lower concentrations than propofol ([4]; glycine receptors heterologously expressed in HEK293 cells): 1000 fold
- effect on glycine (EC10)-evoked current [5]: greatly enhanced
